According to patent publication US12391670B2, “Functionalized aminotriazines” (LEADXPRO AG, priority 2018, dated 2025):
Like-named read-outs stand apart in the source and are kept apart here.

Key:
[1] = biological target: human A2A receptor (Homo sapiens (Human), UniProt P29274); experiment: Radioligand binding competition assay, [3H]-NECA, membranes from HEK293 cells transfected with human A2A receptor; conditions: radioligand binding
Protocol: (§1) For all four adenosine receptors (A1, A2A, A2B and A3) filtration binding assay was performed. Radioligand binding competition assay was done in duplicates in the wells of a 96-well plate (Master Block, Greiner, 786201) containing binding buffer, receptor membrane extracts, a fixed concentration of tracer and test compound at increasing concentrations. In order to eliminate effect of buffer components, binding buffer was the same for all four receptors and contained: 50 mM Tris-HCl pH 7.4, 5 mM MgCl2, 1 mM EDTA, 150 mM NaCl, 0.1% Na-azide, and 5 U/ml adenosine-deaminase. Nonspecific binding was determined by co-incubation with 200-fold excess of cold competitor. In all radioligand binding experiments, the samples were incubated in a final volume of 0.1 ml for 60 minutes at 25° C. and then filtered over Unifilter plates (Perkin Elmer) pre-treated for 2 hours to limit tracer non-specific binding. Filters were washed five times with 0.5 ml of ice-cold washing buffer (50 mM Tris-HCl pH 7.4, 5 mM MgCl2, 1 mM EDTA) and 50 μl of Microscint 20 (Perkin Elmer) were added to each filter. The plates are incubated 15 min at room temperature on an orbital shaker and then counted with a TopCount™ for 1 min/well.
For A2A receptor the assay was performed with [^3H]-NECA and membranes from HEK293 cells transfected with human A2A receptor (Euroscreen FAST-002B).

[2] = biological target: T1, human A2B receptor (Homo sapiens (Human), UniProt P29275); experiment: cAMP assay (b), HEK293 cells expressing recombinant human A2B receptor; type: cell-based; conditions: reference agonist at EC80, read-out: cAMP pIC50 (converted)
T1 sequence (P29275 whole entry): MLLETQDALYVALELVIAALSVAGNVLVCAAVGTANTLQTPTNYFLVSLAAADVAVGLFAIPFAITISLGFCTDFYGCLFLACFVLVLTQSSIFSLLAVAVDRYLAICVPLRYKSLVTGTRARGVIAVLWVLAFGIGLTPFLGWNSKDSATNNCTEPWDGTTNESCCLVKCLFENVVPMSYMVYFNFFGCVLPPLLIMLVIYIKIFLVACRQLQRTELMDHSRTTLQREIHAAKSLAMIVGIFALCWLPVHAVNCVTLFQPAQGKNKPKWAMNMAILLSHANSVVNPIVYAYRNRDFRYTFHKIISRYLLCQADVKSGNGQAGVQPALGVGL
Protocol: (§2) Two assays have been employed, one using HEK293 with A2B receptors endogenously expressed (named cAMP assay (a) in the following) and a second one using HEK293 cells impressing recombinant human A2B receptors (named cAMP assay (b) in the following)
Dose response curves were performed in parallel with the reference compounds. 12 μl of cells were mixed with 6 μl of the test compound at increasing concentrations and then incubated 10 min. Thereafter 6 μl of the reference agonist was added at a final concentration corresponding to the historical EC80. The plates were then incubated for 30 min at room temperature. After addition of the lysis buffer and 1 hour incubation, cAMP concentrations were estimated, according to the manufacturer specification, with the HTRF kit.

[3] = biological target: T1, human A2B receptor; experiment: Radioligand binding competition assay, [3H]-DPCPX, membranes from HEK293 cells transfected with human A2B receptor
Protocol: as §1
For A2B, the assay was carried with [^3H]-DPCPX and membranes prepared from HEK293 cells transfected with human A2B receptor (Euroscreen FAST-003B).

[4] = biological target: human A1 receptor (Homo sapiens (Human), UniProt P30542); experiment: Radioligand binding competition assay, [3H]-DPCPX, membranes from CHO-K1 cells transfected with human A1 receptor
human A1 receptor, sequence (P30542 whole entry): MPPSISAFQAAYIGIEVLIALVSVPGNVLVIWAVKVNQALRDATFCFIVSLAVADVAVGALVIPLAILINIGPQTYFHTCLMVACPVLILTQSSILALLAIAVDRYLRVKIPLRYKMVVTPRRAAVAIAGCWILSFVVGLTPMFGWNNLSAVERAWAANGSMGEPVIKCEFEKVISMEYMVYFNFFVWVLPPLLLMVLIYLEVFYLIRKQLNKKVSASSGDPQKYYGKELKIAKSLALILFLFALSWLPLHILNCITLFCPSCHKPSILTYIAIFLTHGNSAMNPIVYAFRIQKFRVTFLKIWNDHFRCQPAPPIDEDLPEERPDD
Protocol: as §1
For A1 receptor the assay was performed with [^3H]-DPCPX and membranes from CHO-K1 cells transfected with human A1 receptor (Euroscreen FAST-00B).

[5] = biological target: human A3 receptor (Homo sapiens (Human), UniProt P0DMS8); experiment: Radioligand binding competition assay, [125I]-MECA, membranes from CHO-K1 cells transfected with human A3 receptor
human A3 receptor, sequence (P0DMS8 whole entry): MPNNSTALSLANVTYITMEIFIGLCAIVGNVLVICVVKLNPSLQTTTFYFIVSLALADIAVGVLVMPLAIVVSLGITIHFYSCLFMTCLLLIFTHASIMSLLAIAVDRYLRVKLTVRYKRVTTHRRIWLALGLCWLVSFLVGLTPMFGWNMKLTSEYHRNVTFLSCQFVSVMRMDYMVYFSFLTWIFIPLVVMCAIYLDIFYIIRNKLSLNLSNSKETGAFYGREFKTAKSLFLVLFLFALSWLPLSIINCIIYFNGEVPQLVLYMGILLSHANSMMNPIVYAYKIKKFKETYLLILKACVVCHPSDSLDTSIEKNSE
Protocol: as §1
For A3, the assay was carried out with [^125I]-MECA and membranes from CHO-K1 cells transfected with human A3 receptor (Euroscreen FAST-004B).

[6] = biological target: A2B receptors endogenously expressed in HEK293 cells (Homo sapiens (Human), UniProt P29275); experiment: cAMP assay (a), HEK293 cells with A2B receptors endogenously expressed; type: cell-based; conditions: stimulated with 5 μM NECA
A2B receptors endogenously expressed in HEK293 cells, sequence (P29275 whole entry): as the sequence (P29275 whole entry) above
Protocol: as §2
Real-time cAMP-assays in live cells were performed in HEK293 cells stably expressing the EPAC-sensor (I. Vedel, et al., 2015, J. Biomol. Screen. 20, 849-857).
In order to test for cAMP inhibition by preferred compounds of formula I and antagonists, respectively, from this invention, endogenous A2A and A2B expression in above cell lines was exploited. To run the assay, cells were incubated in 80 μl assay buffer for 15 minutes at room temperature. The assay buffer was composed of Hanks Balanced Salt Solution (Gibco) with 20 mM HEPES, pH 7.4 and […] adenosine-deaminase. All cAMP assays were run at room temperature using a PHERAstar FSX plate reader. The FRET donor (mCerulean) was excited at 430 nm. Fluorescence emission was measured at 480 nm and 530 nm for 65 minutes (cycle time 1.45 min). Prior to stimulation fluorescence was measured for 10 min (baseline). Subsequently cells were stimulated with 5 μM NECA (5′-(N-Ethylcarboxamido)adenosine; Tocris, Cat.-No:35920-39-9). Sharply 10.15 min after stimulation the compounds were added at increasing concentrations (between 0 and 200 μM) and fluorescence was recorded for 40 min. Each compound concentration was measured in duplicates.

[7] = read-out: cAMP pIC50 (converted)

human A2A receptor, sequence (P29274 whole entry): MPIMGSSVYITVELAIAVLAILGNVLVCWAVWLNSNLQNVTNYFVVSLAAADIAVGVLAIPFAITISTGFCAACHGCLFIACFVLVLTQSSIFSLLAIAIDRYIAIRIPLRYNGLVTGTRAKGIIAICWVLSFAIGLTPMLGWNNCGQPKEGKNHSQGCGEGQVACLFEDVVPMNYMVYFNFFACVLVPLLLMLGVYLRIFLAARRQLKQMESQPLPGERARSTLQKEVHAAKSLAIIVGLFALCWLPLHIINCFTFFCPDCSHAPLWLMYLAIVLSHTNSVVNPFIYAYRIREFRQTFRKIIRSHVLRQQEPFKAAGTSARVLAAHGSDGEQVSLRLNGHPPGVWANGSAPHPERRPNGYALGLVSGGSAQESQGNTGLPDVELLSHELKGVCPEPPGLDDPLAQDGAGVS

Row | Human A2A Receptor pKi [1] | IC50 [2] | Human A2B Receptor pKi [3] | IC50 [3] | SMILES | further results
1 | 4.49 |  | 6.42 | 420 nM | Fc1cccc(Nc2nnc(-c3ccncc3F)c(-c3ccccc3F)n2)c1 [Example 12, 5-(2-fluorophenyl)-N-(3-fluorophenyl)-6-(3-fluoropyridin-4-yl)-1,2,4-triazin-3-amine] | IC50 [1]: 32600 nM
2 |  |  | 6.94 |  | COc1ccc(NC(=O)Nc2nnc(-c3ccncc3F)c(-c3ccccc3F)n2)cc1 [Example 29, 1-[5-(2-fluorophenyl)-6-(3-fluoro-4-pyridyl)-1,2,4-triazin-3-yl]-3-(4-methoxyphenyl)urea] | 
3 | 5.84 | 50.1 nM | 7.65 |  | CC(C)(O)c1ccc(Nc2nnc(-c3ccncc3F)c(-c3ccccc3F)n2)cn1 [Example 38, 2-(5-{[5-(2-fluorophenyl)-6-(3-fluoropyridin-4-yl)-1,2,4-triazin-3-yl]amino}pyridin-2-yl)propan-2-ol] | Human A3 Receptor pKi [5]: 6.42; Human A1 Receptor pKi [4]: 6.26
4 | 6.00 |  | 7.58 |  | Fc1cnccc1-c1nnc(Nc2ccc(C3CC3)nc2)nc1-c1ccccc1F [Example 44, N-(6-cyclopropylpyridin-3-yl)-5-(2-fluorophenyl)-6-(3-fluoropyridin-4-yl)-1,2,4-triazin-3-amine] | 
5 | 4.7 | 29.5 nM | 7.95 |  | OCc1ccc(Nc2nnc(-c3ccncc3F)c(-c3ccccc3F)n2)cn1 [Example 22, [5-[[5-(2-fluorophenyl)-6-(3-fluoro-4-pyridyl)-1,2,4-triazin-3-yl]amino]-2-pyridyl]methanol] | 
6 | 6.25 |  | 7.89 |  | CC(O)c1ccc(Nc2nnc(-c3ccncc3F)c(-c3ccccc3F)n2)cn1 (stereo not shown) [Example 40, 1-(5-{[5-(2-fluorophenyl)-6-(3-fluoropyridin-4-yl)-1,2,4-triazin-3-yl]amino}pyridin-2-yl)ethan-1-ol] | 
7 | 6.57 | 105 nM | 7.43 |  | COc1ccc(Nc2nnc(-c3ccncc3F)c(-c3ccccc3F)n2)cn1 [Example 23, 5-(2-fluorophenyl)-6-(3-fluoro-4-pyridyl)-N-(6-methoxy-3-pyridyl)-1,2,4-triazin-3-amine] | 
8 | 6.1 |  | 7.84 |  | OCc1ccc(Nc2nnc(-c3ccncc3F)c(-c3ccccc3F)n2)cc1F [Example 37, (2-fluoro-4-{[5-(2-fluorophenyl)-6-(3-fluoropyridin-4-yl)-1,2,4-triazin-3-yl]amino}phenyl)methanol] | 
9 | 6 | 66.1 nM | 7.81 |  | Cc1ccc(Nc2nnc(-c3ccncc3F)c(-c3ccccc3F)n2)cn1 [Example 21, 5-(2-fluorophenyl)-6-(3-fluoro-4-pyridyl)-N-(6-methyl-3-pyridyl)-1,2,4-triazin-3-amine] | 
10 |  |  | 6.55 |  | O=C(Nc1nnc(-c2ccncc2F)c(-c2ccccc2F)n1)NC1CC1 [Example 35, 1-cyclopropyl-3-[5-(2-fluorophenyl)-6-(3-fluoro-4-pyridyl)-1,2,4-triazin-3-yl]urea] | 

Continued, compound first:

Row | SMILES | Human A2A Receptor pKi [1] | IC50 [2] | Human A2B Receptor pKi [3] | IC50 [3] | further results
11 | Cc1cnc(-c2nc(Nc3cccc(F)c3)nnc2-c2ccncc2F)o1 [Example 17, N-(3-fluorophenyl)-6-(3-fluoropyridin-4-yl)-5-(5-methyloxazol-2-yl)-1,2,4-triazin-3-amine] | 5.8 | 324 nM | 7.17 |  | 
12 | CCc1n[nH]c(Nc2nnc(-c3ccncc3F)c(-c3ccccc3F)n2)n1 [Example 18, N-(3-ethyl-1H-1,2,4-triazol-5-yl)-5-(2-fluorophenyl)-6-(3-fluoro-4-pyridyl)-1,2,4-triazin-3-amine] |  |  | 6.68 |  | Human A1 Receptor pKi [4]: 5.00
13 | Fc1cnccc1-c1nnc(Nc2nc(C3CC3)n[nH]2)nc1-c1ccccc1F [Example 31, N-(3-cyclopropyl-1H-1,2,4-triazol-5-yl)-5-(2-fluorophenyl)-6-(3-fluoro-4-pyridyl)-1,2,4-triazin-3-amine] |  | 275 nM | 7.27 |  | Human A1 Receptor pKi [4]: 5.00
14 | Cc1nsc(Nc2nnc(-c3ccncc3F)c(-c3ccccc3F)n2)n1 [Example 13, N-(5-(2-fluorophenyl)-6-(3-fluoropyridin-4-yl)-1,2,4-triazin-3-yl)-3-methyl-1,2,4-thiadiazol-5-amine] | <4.70 |  | 5.98 | 1170 nM | 
15 | Cc1nnc(Nc2nnc(-c3ccncc3F)c(-c3cccnc3)n2)s1 [Example 6, N-(6-(3-fluoropyridin-4-yl)-5-(pyridin-3-yl)-1,2,4-triazin-3-yl)-5-methyl-1,3,4-thiadiazol-2-amine] | <4.70 |  | 5.37 | 4770 nM | IC50 [6]: 3980 nM; IC50 [6, 7]: 3980 nM
16 | Fc1cnccc1-c1nnc(Nc2ccc(OCC(F)F)nc2)nc1-c1ccccc1F [Example 36, N-[6-(2,2-difluoroethoxy)pyridin-3-yl]-5-(2-fluorophenyl)-6-(3-fluoropyridin-4-yl)-1,2,4-triazin-3-amine] | 6.56 |  | 7.42 |  | 
17 | Fc1ccccc1-c1nc(Nc2nc(Cl)cs2)nnc1-c1ccnc(C(F)(F)F)c1 [Example 10, 4-chloro-N-(5-(2-fluorophenyl)-6-(2-(trifluoromethyl)pyridin-4-yl)-1,2,4-triazin-3-yl)thiazol-2-amine] | <4.70 |  | 6.02 | 1070 nM | 
18 | CNC(=O)Nc1nnc(-c2ccncc2F)c(-c2cccnc2)n1 [Example 7, 1-(6-(3-fluoropyridin-4-yl)-5-(pyridin-3-yl)-1,2,4-triazin-3-yl)-3-methylurea] | <4.70 |  | 5.25 | 6320 nM | IC50 [6]: 6920 nM; IC50 [6, 7]: 6920 nM
19 | Cc1nsc(Nc2nnc(-c3ccncc3F)c(-c3cccnc3)n2)n1 [Example 5, N-(6-(3-fluoropyridin-4-yl)-5-(pyridin-3-yl)-1,2,4-triazin-3-yl)-3-methyl-1,2,4-thiadiazol-5-amine] | <4.70 |  | 5.38 | 4660 nM | 
20 | CC(C)(C)c1n[nH]c(Nc2nnc(-c3ccncc3F)c(-c3ccccc3F)n2)n1 [Example 46, N-(3-tert-butyl-1H-1,2,4-triazol-5-yl)-5-(2-fluorophenyl)-6-(3-fluoropyridin-4-yl)-1,2,4-triazin-3-amine] |  |  | 7.01 |  | 
21 | Fc1cnccc1-c1nnc(Nc2ccc(C(F)(F)F)nc2)nc1-c1ccccc1F [Example 24, 5-(2-fluorophenyl)-6-(3-fluoro-4-pyridyl)-N-[6-(trifluoromethyl)-3-pyridyl]-1,2,4-triazin-3-amine] |  | 107 nM | 7.33 |  | Human A1 Receptor pKi [4]: 5.58
22 | Fc1cnccc1-c1nnc(Nc2nccs2)nc1-c1cccnc1 [Example 3, N-(6-(3-fluoropyridin-4-yl)-5-(pyridin-3-yl)-1,2,4-triazin-3-yl)thiazol-2-amine] | <4.70 |  | 5.95 | 1250 nM | IC50 [6]: 2000 nM; IC50 [6, 7]: 2000 nM
